Literature values, collected in US8618022B2, “Process for preparing an aqueous suspension of an organic pesticide compound” (priority 2009, dated 2013).
≈ marks a conversion by molar mass, not a printed value.

Details: at 20° C.

SMILES | solubility in water [µg/mL]
COC(=O)N(OC)c1ccccc1COc1ccn(-c2ccc(Cl)cc2)n1 [pyraclostrobin, methyl {2-[1-(4-chlorophenyl)pyrazol-3-yloxymethyl]phenyl}-(methoxy)carbamate] | < 2

Same assay, conditions: deionised water at 20° C.

SMILES | water solubility
Cc1c(COC(=O)[C@@H]2[C@H](/C=C(\Cl)C(F)(F)F)C2(C)C)cccc1-c1ccccc1 (racemic) [bifenthrin] | 0.1 mg/L (≈ 0.236 µM)
ClC1=C(Cl)C2(Cl)C3C4C=CC(C4)C3C1(Cl)C2(Cl)Cl (stereo not shown) [aldrin] | <<1 mg/l
CCCCN(CC)c1c([N+](=O)[O-])cc(C(F)(F)F)cc1[N+](=O)[O-] [benfluralin] | <1 mg/L
COP(=S)(OC)Oc1cc(Cl)c(Br)cc1Cl [bromophos] | 40 mg/L (≈ 109 µM)
CC(C)OC(=O)C(O)(c1ccc(Br)cc1)c1ccc(Br)cc1 [bromopropylate] | <5 mg/L
CCOP(=S)(OCC)ON=C(C#N)c1ccccc1Cl [chlorphoxim] | 2 mg/L (≈ 6.01 µM)
CCOP(=S)(OCC)Oc1nc(Cl)c(Cl)cc1Cl [chlorpyriphos] | 2 mg/L (≈ 5.7 µM)
CC1(C)CCC(Cc2ccc(Cl)cc2)C1(O)Cn1cncn1 (stereo not shown) [metconazol] | 1400 mg/L (≈ 4380 µM)
CC(C)OC(=O)c1cc(C(=O)OC(C)C)cc([N+](=O)[O-])c1 [nitrothal-isopropyl] | 0.4 mg/L (≈ 1.35 µM)
COP(=S)(OC)SCN1C(=O)c2ccccc2C1=O [phosmet] | 25 mg/L (≈ 78.8 µM)
O=C(Nc1ccc(F)cc1)c1cccc(Oc2cccc(C(F)(F)F)c2)n1 [picolinafen] | <0.1 mg/L
CO/C=C(/C(=O)OC)c1ccccc1COc1cccc(C(F)(F)F)n1 [picoxystrobin] | 3.1 mg/L (≈ 8.44 µM)
